Source: publication PMC8141534 (The Journal of Biological Chemistry, 2021)
Ends that are not written are not given here.

Assays:
Rho = test system: Rho; design: method as in 2 sources, one per row (each row's own in cited_ref): ref [23] = [23]; PMID 8466900; doi:10.1021/bi00065a007; 23 Zwiefka A. Kohn H. Widger W.R. Transcription termination factor rho: The site of Bicyclomycin inhibition in Escherichia coli Biochemistry 32 1993 3564 3570 8466900 10.1021/bi00065a007 ||| ref [24], [25], [26] = [24]; PMID 17565995; doi:10.1074/jbc.M702010200; 24 Gutiérrez P. Kozlov G. Gabrielli L. Elias D. Osborne M.J. Gallouzi I.E. Gehring K. Solution structure of YaeO, a rho-specific inhibitor of transcription termination J. Biol. Chem. 282 2007 23348 23 || [25]; PMID 21673658; doi:10.1038/emboj.2011.192; 25 Rabhi M. Espéli O. Schwartz A. Cayrol B. Rahmouni A.R. Arluison V. Boudvillain M. The Sm-like RNA chaperone Hfq mediates transcription antitermination at Rho-dependent terminators EMBO J. 30 2011 2 || [26]; PMID 31628950; doi:10.1016/j.jmb.2019.09.019; 26 Pal K. Yadav M. Jain S. Ghosh B. Sen R. Sen U. Vibrio cholerae YaeO is a structural homologue of RNA chaperone Hfq that inhibits rho-dependent transcription termination by dissociating its hexameri; conditions: cited from earlier work; for Rho antagonism (in words): ref [24], [25], [26]
[1] = test system: Mycobacterium smegmatis mc^2155; type: cell-based
E. coli MG1655 = type: cell-based, Escherichia coli; conditions: MG1655, pNL150, IPTG induction (100 μM), LB, 37 °C, 6 h; three independent colonies
E. coli Rho [2] = type: biochemical, Escherichia coli
CD spectrometry = type: physicochemical; conditions: 10 mM 2-(N-morpholino)ethanesulfonic acid pH 5.5, 190 to 270 nm, 25 °C
E. coli Rho [3] = test: Rho-mediated RNA release from stalled (roadblocked) elongation complex; type: biochemical, Escherichia coli; conditions: for inhibition of Rho-induced RNA release from stalled EC (in words): Fig. 3E; for inhibition of Rho-induced RNA release from stalled EC (in words) / Frac. of RNA released (%): Fig. S4B
E. coli Rho [4] = test: single round in vitro Rho-dependent transcription termination, T7A1-trpt′ template; type: biochemical, Escherichia coli
WT Rho = WT Rho (Escherichia coli, UniProt P0AG30); type: biochemical
isolated Rho–NTD monomer = test: interaction with isolated Rho-NTD monomer; type: binding, Escherichia coli; conditions: data not shown
[5] = test system: Rho proteins from pathogenic bacteria; type: biochemical; conditions: 35 μM peptide 33, 50 nM Rho, E. coli RNAP stalled EC, trpt′
Mycobacterium bovis BCG = type: cell-based
[6] = test system: Rho mutants, R66G and Y80C; type: cell-based, Escherichia coli; conditions: 50 μM IPTG
E134K Rho = E134K Rho (Escherichia coli, UniProt P0AG30, E134K); type: biochemical; conditions: E134K Rho + peptide; λTR1 RNA; exponential decay fit; two to three measurements
[7] = test system: Rho-dependent termination (trpt′ and trac terminators, lacZ reporter); type: cell-based, Escherichia coli; conditions: Fig. 3
P167L Rho [8] = target: P167L Rho (Escherichia coli, UniProt P0AG30, P167L); test: biochemical; type: binding
[9] = test system: Rho-dependent termination (galEP3 reporter); test: in vivo Rho-dependent termination, galEP3 reporter, MacConkey-galactose plates; type: cell-based, Escherichia coli; conditions: MC4100 galEP3, MacConkey-galactose plates, overexpression
[10] = test system: Rho mutants, R144E, R146E, and E148R; type: cell-based, Escherichia coli; conditions: 0 and 100 μM IPTG
E134K Rho mutant = type: cell-based, Escherichia coli; conditions: IPTG induction
MG1655 gene expression = type: cell-based, Escherichia coli; conditions: qRT-PCR, relative to empty vector
[11] = pH 5.5
P167L Rho [12] = target: T1, P167L Rho (E. coli, UniProt P0AG30 1-419, P167L); test: pull-down; His-tagged peptides (30 μg peptide 16, 20 μg peptide 33) or His-tagged WT Psu (15 μg) bound to Ni-NTA beads at 4 °C for 12 to 16 h in 100 mM NaH2PO4 pH 8.0, 100 mM NaCl, 10 mM imidazole, 1 mM PMSF; 5 μg non-His-tagged P167L Rho added with 1 mM ATP, 37 °C, 20 min; wash 50 mM imidazole, elution 500 mM imidazole; SDS-Tricine PAGE; conditions: both partners purified
T1 construct: also called Rho P167L; non-His-tagged P167L Rho

[13] = ITC, 1 μM Rho P167L, 50 μM peptide, 1 mM ATP, pH 8.0, 25 °C, average of three experiments ± SD, Fig. 4B
[14] = Rho + NusG-CTD (5 μM) + ATP, average of three experiments ± SD, Fig. 6A
[15] = Rho + Poly dC34 (10 μM) + ATP, average of three experiments ± SD, Fig. 6A
[16] = Rho + PolyC (2 mM Poly(rC)), average of three experiments ± SD, Fig. 6A
[17] = Rho + ATP, average of three experiments ± SD, Fig. 6A
[18] = Rho bound to the single-stranded DNA and RNA

C=C1CCO[C@]2([C@@H](O)[C@@](C)(O)CO)NC(=O)[C@@]1(O)NC2=O [bicyclomycin]
Rho inhibition (in words) (Rho; ref [23]): directly binds near the ATP-binding sites and inhibits Rho functions

Hfq: PBS-binding Rho antagonist
Rho antagonism (in words) (Rho): PBS-binding Rho antagonists

MHHHHHHTPAQFIFFRVKVRNWHTSVSVKAWLFWRMREDFQPDTD [peptide 33]
growth phenotype upon streaking (in words) [1]: very sick phenotype | transformants obtained (in words) [1]: fewer colonies than those obtained from the transformation with the empty vector | growth defect upon expression (in words) (E. coli MG1655): severe growth defects | inhibition of ATPase activity of E. coli Rho (in words) (E. coli Rho [2]): more efficient than peptide 16 in inhibiting this Rho function | secondary structure by CD (in words) (CD spectrometry): predominantly α-helical | inhibition of Rho-induced RNA release from stalled EC (in words) (E. coli Rho [3]): significantly inhibited | inhibition of Rho-induced RNA release from stalled EC (in words) (E. coli Rho [3]; listed as Peptide 33): exerted its action at a lower concentration than peptide 16 | concentration for maximal effects (E. coli Rho [3]; in general, varied between different lots): ≥ 50 µM | Frac. of RNA released (%) (E. coli Rho [3]; peptide 25, Rho 50 nM): 31± 0.4% | Frac. of RNA released (%) (E. coli Rho [3]; peptide 35, Rho 50 nM): 16 ± 0.4% | Frac. of RNA released (%) (E. coli Rho [3]; peptide 50, Rho 50 nM): 13 ± 0.4% | effect on transcription when Rho was absent (in words) (E. coli Rho [4]; no Rho): did not have any effect on transcription when Rho was absent | reduction of rate of ATP hydrolysis (WT Rho; WT Rho): ~5.5 fold | λ (average rate of ATP hydrolysis) (WT Rho; WT Rho + peptide, λTR1 RNA, exponential decay fit, two to three measurements): 0.009 min⁻¹ | interaction with isolated Rho-NTD monomer (in words) (isolated Rho–NTD monomer): unable to interact with an isolated Rho–NTD monomer | inhibition of RNA release by pathogenic Rho proteins (in words) [5]: could inhibit the termination process by all the different Rho proteins | growth phenotype upon streaking (in words) (Mycobacterium bovis BCG): very sick phenotype | effect on growth of Rho mutants compared with WT (in words) [6]: very severe | λ (average rate of ATP hydrolysis) (E134K Rho): 0.0155 min⁻¹ | in vivo antitermination / Rho inhibitory properties (in words) [7]: strong in vivo antitermination of Rho-dependent termination | Kd (P167L Rho [8]; [13]): 16.6 ± 3 nM | Kd (P167L Rho [8]; P167L Rho, ITC): 17 nM | Kd (P167L Rho [8]; [14]): 26.5 ± 0.3 nM | Kd (P167L Rho [8]; [15]): 255 ± 100 nM | Kd (P167L Rho [8]; [16]): 164 ± 48 nM | n (P167L Rho [8]; [17]): 3.75 ± 0.2 | ΔG (P167L Rho [8]; [17]): -11 ± 0.1 kcal/mol | ΔH (P167L Rho [8]; [17]): -28 ± 0.9 kcal/mol | ΔS (P167L Rho [8]; [17]): -57 ± 3 cal/mol.K | n (P167L Rho [8]; [14]): 3.1 ± 0.1 | ΔG (P167L Rho [8]; [14]): -10.3 ± 0.02 kcal/mol | ΔH (P167L Rho [8]; [14]): -26 ± 3 kcal/mol | ΔS (P167L Rho [8]; [14]): -52 ± 10 cal/mol.K | n (P167L Rho [8]; [15]): 1.9 ± 0.3 | ΔG (P167L Rho [8]; [15]): -9.1 ± 0.3 kcal/mol | ΔH (P167L Rho [8]; [15]): -23.7 ± 4 kcal/mol | ΔS (P167L Rho [8]; [15]): -49.00 ± 13 cal/mol.K | n (P167L Rho [8]; [16]): 2.9 ± 0.1 | ΔG (P167L Rho [8]; [16]): -9.3 ± 0.2 kcal/mol | ΔH (P167L Rho [8]; [16]): -27.1 ± 3.5 kcal/mol | ΔS (P167L Rho [8]; [16]): -59.6 ± 12.3 cal/mol.K | binding stoichiometry (in words) (P167L Rho [8]; [18]): also reduced | thermodynamic parameters (in words) (P167L Rho [8]; [18]): not changed significantly | affinity for Rho (in words) (P167L Rho [8]; in the presence of NusG CTD): not affected significantly | reduction of affinity for Rho (P167L Rho [8]; in the presence of polyC): 10 fold | reduction of affinity for Rho (P167L Rho [8]; in the presence of polydC34): 15 fold | colour of colonies, galEP3 reporter (in words) [9]: appearance of red colonies | peptide-induced growth defect with Rho mutants (in words) [10]: could not prevent the peptide-induced growth defect | effect on growth of E134K Rho compared with WT (in words) (E134K Rho mutant): less severe effect on the growth of the E134K Rho than its WT counterpart | upregulation of tested genes (in words) (MG1655 gene expression): higher level of upregulation of these genes than that when its CTDΔ8 derivative was expressed | solubility at mildly acidic pH (in words) [11]: properly soluble at a mildly acidic pH

MHHHHHHTPAQGMIFSVKVRTGITSVSVKAWLFWRMREDFQPDTD [peptide 16]
growth defect upon expression (in words) (E. coli MG1655): severe growth defects | secondary structure by CD (in words) (CD spectrometry): predominantly α-helical | inhibition of Rho-induced RNA release from stalled EC (in words) (E. coli Rho [3]): significantly inhibited | inhibition of Rho-induced RNA release from stalled EC (in words) (E. coli Rho [3]; listed as Peptide 16): could efficiently inhibit the RNA release of Rho only when stalled EC was used | Frac. of RNA released (%) (E. coli Rho [3]; peptide 25, Rho 50 nM): 38 ± 2% | Frac. of RNA released (%) (E. coli Rho [3]; peptide 50, Rho 50 nM): 22 ± 0.8% | Frac. of RNA released (%) (E. coli Rho [3]; peptide 100, Rho 50 nM): 13 ± 2% | effect in transcription termination assay with Rho (in words) (E. coli Rho [4]; data not shown): much less | in vivo antitermination / Rho inhibitory properties (in words) [7]: strong in vivo antitermination of Rho-dependent termination | Kd (P167L Rho [8]; [13]): 214 ± 113 nM | binding affinity and stoichiometry (in words) (P167L Rho [8]; compared with peptide 33, ITC): binds with much weaker affinity and with significantly reduced stoichiometry | colour of colonies, galEP3 reporter (in words) [9]: appearance of red colonies | peptide-induced growth defect with Rho mutants (in words) [10]: could not prevent the peptide-induced growth defect | solubility at mildly acidic pH (in words) [11]: properly soluble at a mildly acidic pH

B1: YaeO: PBS-binding Rho antagonist (protein, UniProt P0AFW8 1-84, looked up)
Protein rof: MNDTYQPINCDDYDNLELACQHHLMLTLELKDGEKLQAKASDLVSRKNVEYLVVEAAGETRELRLDKITSFSHPEIGTVVVSES
Rho antagonism (in words) (Rho): PBS-binding Rho antagonists

B2: His-tagged WT Psu (polarity suppression protein, bacteriophage P4 capsid protein) (natural protein)
chain: MESTALQQAFDTCQNNKAAWLQRKNELAAAEQEYLRLLSGEGRNVSRLDELRNIIEVRKWQVNQAAGRYIRSHEAVQHISIRDRLNDFMQQHGTALAAALAPELMGYSELTAIARNCAIQRATDALREALLSWLAKGEKINYSAQDSDILTTIGFRPDVASVDDSREKFTPAQNMIFSRKSAQLASRQSV
binding result (P167L Rho [12]): binds
